Data as given in patent US9878986B2, “Compounds for selective histone deacetylase inhibitors, and pharmaceutical composition comprising the same” (CHONG KUN DANG PHARMACEUTICAL CORP., priority 2013, dated 2018).
pIC50: −log10 of the molar value.

Experiments:
HDAC1 = HDAC1 (Homo sapiens, UniProt Q13547); test: Test of HDAC activities, HDAC1 Fluorimetric Drug Discovery Assay Kit; type: biochemical; set-up: purchased Enzolifesciences BML-AK511; details: samples at 100, 1000, 10000 nM; 37° C. 60 minutes; fluorescence Ex 390, Em 460; read-out: HDAC inhibitory activities, HDAC1
Chain of HDAC1 (Q13547 whole entry): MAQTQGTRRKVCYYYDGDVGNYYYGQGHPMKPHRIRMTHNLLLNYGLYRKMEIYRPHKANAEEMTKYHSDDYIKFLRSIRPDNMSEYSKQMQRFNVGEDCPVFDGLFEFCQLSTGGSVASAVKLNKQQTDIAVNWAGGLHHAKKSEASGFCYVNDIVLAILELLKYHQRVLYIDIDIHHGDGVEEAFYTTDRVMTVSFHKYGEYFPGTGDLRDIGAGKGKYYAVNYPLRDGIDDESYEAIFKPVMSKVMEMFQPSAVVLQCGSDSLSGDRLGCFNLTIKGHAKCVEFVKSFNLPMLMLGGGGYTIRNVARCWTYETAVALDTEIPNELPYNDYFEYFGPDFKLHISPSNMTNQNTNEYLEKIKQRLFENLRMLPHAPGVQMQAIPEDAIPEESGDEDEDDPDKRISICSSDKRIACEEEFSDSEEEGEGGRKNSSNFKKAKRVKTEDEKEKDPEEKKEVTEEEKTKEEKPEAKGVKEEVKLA
Procedure: (§1) The HDAC inhibitory activities of test materials were measured using the HDAC1 Fluorimetric Drug Discovery Assay Kit (Enzolifesciences: BML-AK511) and HDAC6 human recombinant (Calbiochem: 382180). In the HDAC1 assay, the samples were treated with concentrations of 100, 1000, and 10000 nM, and in the HDAC6 assay, the samples were treated with concentrations of 0.1, 1, 10, 100, and 1000 nM. After the treatment of the samples, the samples were reacted at 37° C. for 60 minutes, treated with a developer, and then reacted at 37° C. for 30 minutes. Then, the fluorescence intensity (Ex 390, Em 460) was measured using the FlexStation 3 (Molecular device).

HDAC 6 = biological target: T1, HDAC 6 (Homo sapiens, UniProt Q9UBN7); test: Test of HDAC activities, HDAC6 (fluorimetric); type: biochemical; set-up: purchased Calbiochem 382180; details: samples at 0.1, 1, 10, 100, 1000 nM; 37° C. 60 minutes; fluorescence Ex 390, Em 460; read-out: HDAC inhibitory activities, HDAC6
T1 sequence (Q9UBN7 1-1215): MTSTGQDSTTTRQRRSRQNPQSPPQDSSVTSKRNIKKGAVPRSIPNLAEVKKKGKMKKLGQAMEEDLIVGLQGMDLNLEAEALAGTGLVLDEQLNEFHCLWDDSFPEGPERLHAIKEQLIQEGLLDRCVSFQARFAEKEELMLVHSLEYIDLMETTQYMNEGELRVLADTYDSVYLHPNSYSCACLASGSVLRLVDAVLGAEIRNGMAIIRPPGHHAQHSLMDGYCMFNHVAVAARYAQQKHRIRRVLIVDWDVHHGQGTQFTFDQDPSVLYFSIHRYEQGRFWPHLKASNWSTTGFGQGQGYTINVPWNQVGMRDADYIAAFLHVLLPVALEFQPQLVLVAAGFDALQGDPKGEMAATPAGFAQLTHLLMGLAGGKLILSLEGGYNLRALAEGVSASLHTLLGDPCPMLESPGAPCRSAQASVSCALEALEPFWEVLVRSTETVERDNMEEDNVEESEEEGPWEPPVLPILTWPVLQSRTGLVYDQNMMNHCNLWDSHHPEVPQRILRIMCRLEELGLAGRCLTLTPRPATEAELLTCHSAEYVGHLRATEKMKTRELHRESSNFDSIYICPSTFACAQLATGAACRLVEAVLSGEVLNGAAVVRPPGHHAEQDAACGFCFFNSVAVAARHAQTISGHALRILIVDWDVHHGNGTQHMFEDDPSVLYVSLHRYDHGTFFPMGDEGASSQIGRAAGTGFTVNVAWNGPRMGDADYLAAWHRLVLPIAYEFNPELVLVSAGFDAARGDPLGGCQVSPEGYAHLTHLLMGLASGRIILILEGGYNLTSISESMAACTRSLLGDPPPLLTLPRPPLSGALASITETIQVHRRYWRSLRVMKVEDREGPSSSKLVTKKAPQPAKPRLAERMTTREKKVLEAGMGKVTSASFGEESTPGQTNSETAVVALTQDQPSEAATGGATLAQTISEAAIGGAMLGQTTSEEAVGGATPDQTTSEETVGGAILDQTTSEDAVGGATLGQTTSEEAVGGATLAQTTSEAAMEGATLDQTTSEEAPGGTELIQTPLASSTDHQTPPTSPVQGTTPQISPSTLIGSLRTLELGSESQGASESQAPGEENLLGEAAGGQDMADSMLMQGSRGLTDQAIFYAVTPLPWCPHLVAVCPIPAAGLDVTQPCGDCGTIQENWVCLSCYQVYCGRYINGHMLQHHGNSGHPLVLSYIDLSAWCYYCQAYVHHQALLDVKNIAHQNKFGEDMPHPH
Procedure: as §1

SMILES	pIC50 (HDAC1)	pIC50 (HDAC 6)
Cn1ncc2cc(-c3cccc(N(Cc4ccc(C(=O)NO)cc4)C(=O)N4CCOCC4)c3)ccc21 [Compound 252, N-(4-(hydroxycarbamoyl)benzyl)-N-(3-(1-methyl-1H-indazol-5-yl)phenyl)morpholine-4-carboxamide]	6.82	8.22
CN1CCN(C(=O)N(Cc2ccc(C(=O)NO)cc2)c2cccc(Br)c2)CC1 [Compound 256, N-(3-bromophenyl)-N-(4-(hydroxycarbamoyl)benzyl)-4-methylpiperazine-1-carboxamide]	6.83	9.00
Cn1ncc2cc(-c3cccc(N(Cc4ccc(C(=O)NO)cc4)C(=O)N4CCCCC4)c3)ccc21 [Compound 260, N-(4-(hydroxycarbamoyl)benzyl)-N-(3-(1-methyl-1H-indazol-5-yl)phenyl)piperidine-1-carboxamide]	6.26	8.15
O=C(NO)c1ccc(CN(C(=O)N2CCOCC2)c2cccc(-c3ccc4cc[nH]c4c3)c2)cc1 [Compound 261, N-(3-(1H-indol-6-yl)phenyl)-N-(4-(hydroxycarbamoyl)benzyl)morpholine-4-carboxamide]	7.14	8.70
O=C(NO)c1ccc(CN(C(=O)N2CCOCC2)c2cccc(-c3cccnc3)c2)cc1 [Compound 262, N-(4-(hydroxycarbamoyl)benzyl)-N-(3-(pyridin-3-yl)phenyl)morpholine-4-carboxamide]	6.79	9.00
O=C(NO)c1ccc(CN(C(=O)N2CCOCC2)c2cccc(-c3ccc4[nH]ccc4c3)c2)cc1 [Compound 263, N-(3-(1H-indol-5-yl)phenyl)-N-(4-(hydroxycarbamoyl)benzyl)morpholine-4-carboxamide]	7.12	8.70
O=C(NO)c1ccc(CN(C(=O)N2CCOCC2)c2ccccc2)cc1 [Compound 279, N-(4-(hydroxycarbamoyl)benzyl)-N-phenylmorpholine-4-carboxamide]	6.53	9.00
O=C(NO)c1ccc(CN(C(=O)N2CCOCC2)c2ccccn2)cc1 [Compound 280, N-(4-(hydroxycarbamoyl)benzyl)-N-(pyridin-2-yl)morpholine-4-carboxamide]	5.90	8.30
O=C(NO)c1ccc(CN(C(=O)N2CCOCC2)c2cccnc2)cc1 [Compound 281, N-(4-(hydroxycarbamoyl)benzyl)-N-(pyridin-3-yl)morpholine-4-carboxamide]	5.41	7.57
O=C(NO)c1ccc(CN(C(=O)N2CCN(Cc3ccccc3)CC2)c2ncccn2)cc1 [Compound 309, 4-benzyl-N-(4-(hydroxycarbamoyl)benzyl)-N-(pyrimidin-2-yl)piperazine-1-carboxamide]	–	8.52
O=C(NO)c1ccc(CN(C(=O)N2CCC(O)(c3ccccc3)CC2)c2ncccn2)cc1 [Compound 311, 4-hydroxy-N-(4-(hydroxycarbamoyl)benzyl)-4-phenyl-N-(pyrimidin-2-yl)piperidine-1-carboxamide]	4.64	7.89
O=C(NO)c1ccc(CN(C(=O)N2CCOCC2)c2ncccn2)cc1 [Compound 312, N-(4-(hydroxycarbamoyl)benzyl)-N-(pyrimidin-2-yl)morpholine-4-carboxamide]	4.64	8.15
CC1CN(C(=O)N(Cc2ccc(C(=O)NO)cc2)c2ncccn2)CC(C)O1 (stereo not shown) [Compound 313, N-(4-(hydroxycarbamoyl)benzyl)-2,6-dimethyl-N-(pyrimidin-2-yl)morpholine-4-carboxamide]	4.44	8.15
O=C(NO)c1ccc(CN(C(=O)N2CC=C(c3ccccc3)CC2)c2ccccn2)cc1 [Compound 352, N-(4-(hydroxycarbamoyl)benzyl)-4-phenyl-N-(pyridin-2-yl)-5,6-dihydropyridine-1(2H)-carboxamide]	5.34	8.15
CN1CCN(C(=O)N(Cc2ccc(C(=O)NO)cc2)c2ccccn2)CC1 [Compound 353, N-(4-(hydroxycarbamoyl)benzyl)-4-methyl-N-(pyridin-2-yl)piperazine-1-carboxamide]	5.34	8.00
CCN1CCN(C(=O)N(Cc2ccc(C(=O)NO)cc2)c2ccccn2)CC1 [Compound 354, 4-ethyl-N-(4-(hydroxycarbamoyl)benzyl)-N-(pyridin-2-yl)piperazine-1-carboxamide]	5.41	8.05
O=C(NO)c1ccc(CN(C(=O)N2CCN(Cc3ccccc3)CC2)c2ccccn2)cc1 [Compound 355, 4-benzyl-N-(4-(hydroxycarbamoyl)benzyl)-N-(pyridin-2-yl)piperazine-1-carboxamide]	5.63	8.30
COc1ccccc1N1CCN(C(=O)N(Cc2ccc(C(=O)NO)cc2)c2ccccn2)CC1 [Compound 356, N-(4-(hydroxycarbamoyl)benzyl)-4-(2-methoxyphenyl)-N-(pyridin-2-yl)piperazine-1-carboxamide]	5.42	8.40
O=C(NO)c1ccc(CN(C(=O)N2CCN(c3ccc(F)cc3)CC2)c2ccccn2)cc1 [Compound 357, 4-(4-fluorophenyl)-N-(4-(hydroxycarbamoyl)benzyl)-N-(pyridin-2-yl)piperazine-1-carboxamide]	5.48	8.52
O=C(NO)c1ccc(CN(C(=O)N2CCCC2)c2ccccn2)cc1 [Compound 358, N-(4-(hydroxycarbamoyl)benzyl)-N-(pyridin-2-yl)pyrrolidine-1-carboxamide]	5.38	8.05
O=C(NO)c1ccc(CN(C(=O)N2CCOCC2)c2nc(-c3ccccc3)cs2)cc1 [Compound 370, N-(4-(hydroxycarbamoyl)benzyl)-N-(4-phenylthiazol-2-yl)morpholine-4-carboxamide]	6.15	9.00
O=C(NO)c1ccc(CN(C(=O)N2CCOCC2)c2nc(-c3ccc(Cl)cc3)cs2)cc1 [Compound 371, N-(4-(4-chlorophenyl)thiazol-2-yl)-N-(4-(hydroxycarbamoyl)benzyl)morpholine-4-carboxamide]	5.88	7.70
O=C(NO)c1ccc(CN(C(=O)N2CCOCC2)c2ccc(Br)cc2)cc1 [Compound 372, N-(4-bromophenyl)-N-(4-(hydroxycarbamoyl)benzyl)morpholine-4-carboxamide]	6.67	9.00
CN1CCCN(C(=O)N(Cc2ccc(C(=O)NO)cc2)c2ccccn2)CC1 [Compound 376, N-(4-(hydroxycarbamoyl)benzyl)-4-methyl-N-(pyridin-2-yl)-1,4-diazepane-1-carboxamide]	–	8.40
O=C(NO)c1ccc(CN(C(=O)N2CCC2)c2ccccn2)cc1 [Compound 377, N-(4-(hydroxycarbamoyl)benzyl)-N-(pyridin-2-yl)azetidine-1-carboxamide]	–	8.30
Cc1ccc(N2CCN(C(=O)N(Cc3ccc(C(=O)NO)cc3)c3ccccn3)CC2)cc1C [Compound 379, 4-(3,4-dimethylphenyl)-N-(4-(hydroxycarbamoyl)benzyl)-N-(pyridin-2-yl)piperazine-1-carboxamide]	–	8.40
O=C(NO)c1ccc(CN(C(=O)N2CCOCC2)c2ccc(C(F)(F)F)cc2)cc1 [Compound 385, N-(4-(hydroxycarbamoyl)benzyl)-N-(4-(trifluoromethyl)phenyl)morpholine-4-carboxamide]	6.01	8.30
CC1CN(C(=O)N(Cc2ccc(C(=O)NO)cc2)c2cccc(C(F)(F)F)c2)CC(C)O1 (stereo not shown) [Compound 386, N-(4-(hydroxycarbamoyl)benzyl)-2,6-dimethyl-N-(3-(trifluoromethyl)phenyl)morpholine-4-carboxamide]	5.39	8.22
